We go through one molecule from patent US20250340538A1, “IMIDAZOLONE DERIVATIVES AS INHIBITORS OF PROTEIN KINASES IN PARTICULAR DYRK1A, CLK1 AND/OR CLK4” (PERHA PHARMACEUTICALS, priority 2021, published 2025).

pIC50: −log10 of the molar value. Like-named read-outs stand apart in the source and are kept apart here.

Holding throughout (assay type): biochemical
For one assay, the target named is T1, CLK4 (Homo sapiens, UniProt Q9HAZ1).
T1 construct: GST-fusion or His-tag (not specified per kinase); purchased ProQinase GmbH; host or cells: Sf9 insect cells or E. coli (not specified per kinase)
T1 sequence (Q9HAZ1 whole entry, the tested form may be a part): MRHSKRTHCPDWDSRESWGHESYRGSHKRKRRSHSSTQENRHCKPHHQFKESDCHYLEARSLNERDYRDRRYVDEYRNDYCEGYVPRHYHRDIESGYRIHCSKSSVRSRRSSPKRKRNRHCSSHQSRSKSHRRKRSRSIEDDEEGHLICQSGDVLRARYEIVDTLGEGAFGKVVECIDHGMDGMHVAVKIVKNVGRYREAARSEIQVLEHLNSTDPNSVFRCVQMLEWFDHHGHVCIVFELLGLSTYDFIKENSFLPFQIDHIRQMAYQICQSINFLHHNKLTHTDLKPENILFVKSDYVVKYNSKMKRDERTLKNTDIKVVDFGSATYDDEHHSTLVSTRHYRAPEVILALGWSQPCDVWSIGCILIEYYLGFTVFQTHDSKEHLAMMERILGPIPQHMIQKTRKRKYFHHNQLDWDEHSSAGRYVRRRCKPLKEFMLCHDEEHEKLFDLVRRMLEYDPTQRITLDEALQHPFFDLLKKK
Description: Radiometric protein kinase assay (33PanQinase Activity Assay), CLK4. The conditions noted are these: read-out: IC50 on CLK4 (most potent CLK4 inhibitors). In outline:
(§1)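 Human kinase (Sf9- or E. coli-expressed, tagged, purified) + substrate + [γ-33P]-ATP; cpd 10 μM→30 nM, 10 pts, 1% DMSO; 30 °C, 60 min; H3PO4 stop; scintillation count; IC50 from curve.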

The target of the next assay is T2, DYRK1A (Homo sapiens, UniProt Q13627).
T2 construct: GST-fusion or His-tag (not specified per kinase); purchased ProQinase GmbH; host or cells: Sf9 insect cells or E. coli (not specified per kinase)
The experiment in a line: Radiometric protein kinase assay (33PanQinase Activity Assay), DYRK1A. The essentials:
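Recombinant human kinase, expressed in Sf9 or E. coli, in a radiometric [γ-33P]-ATP assay at 30 °C for 60 min. Compounds tested at 10 concentrations from 10 μM to 30 nM, 1% DMSO final. 33Pi incorporation measured by scintillation counting; IC50 from dose-response curves.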

A further assay concerns the target T3, DYRK2 (Homo sapiens, UniProt Q92630).
T3 construct: GST-fusion or His-tag (not specified per kinase); purchased ProQinase GmbH; host or cells: Sf9 insect cells or E. coli (not specified per kinase)
T3 sequence (Q92630 1-601): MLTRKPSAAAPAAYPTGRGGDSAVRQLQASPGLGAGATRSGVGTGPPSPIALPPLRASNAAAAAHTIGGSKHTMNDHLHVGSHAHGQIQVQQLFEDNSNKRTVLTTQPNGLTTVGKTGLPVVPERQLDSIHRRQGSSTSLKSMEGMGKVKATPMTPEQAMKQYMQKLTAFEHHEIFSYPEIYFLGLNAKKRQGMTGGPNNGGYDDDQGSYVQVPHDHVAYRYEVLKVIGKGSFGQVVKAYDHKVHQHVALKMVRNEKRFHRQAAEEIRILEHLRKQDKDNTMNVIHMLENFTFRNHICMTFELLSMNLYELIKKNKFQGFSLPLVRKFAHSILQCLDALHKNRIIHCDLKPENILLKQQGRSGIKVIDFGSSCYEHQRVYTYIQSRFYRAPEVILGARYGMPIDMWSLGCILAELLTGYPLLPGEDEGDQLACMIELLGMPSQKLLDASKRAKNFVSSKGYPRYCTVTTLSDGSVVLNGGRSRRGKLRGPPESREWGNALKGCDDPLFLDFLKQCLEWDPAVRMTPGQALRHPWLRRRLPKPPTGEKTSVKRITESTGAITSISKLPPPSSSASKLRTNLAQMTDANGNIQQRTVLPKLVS
Description: Radiometric protein kinase assay (33PanQinase Activity Assay), DYRK2. Conditions: read-out: IC50 on DYRK2 (most potent DYRK2 inhibitors). In outline: as §1

In another assay the target is T4, DYRK3 (Homo sapiens, UniProt O43781).
T4 construct: GST-fusion or His-tag (not specified per kinase); purchased ProQinase GmbH; host or cells: Sf9 insect cells or E. coli (not specified per kinase)
T4 sequence (O43781 1-588): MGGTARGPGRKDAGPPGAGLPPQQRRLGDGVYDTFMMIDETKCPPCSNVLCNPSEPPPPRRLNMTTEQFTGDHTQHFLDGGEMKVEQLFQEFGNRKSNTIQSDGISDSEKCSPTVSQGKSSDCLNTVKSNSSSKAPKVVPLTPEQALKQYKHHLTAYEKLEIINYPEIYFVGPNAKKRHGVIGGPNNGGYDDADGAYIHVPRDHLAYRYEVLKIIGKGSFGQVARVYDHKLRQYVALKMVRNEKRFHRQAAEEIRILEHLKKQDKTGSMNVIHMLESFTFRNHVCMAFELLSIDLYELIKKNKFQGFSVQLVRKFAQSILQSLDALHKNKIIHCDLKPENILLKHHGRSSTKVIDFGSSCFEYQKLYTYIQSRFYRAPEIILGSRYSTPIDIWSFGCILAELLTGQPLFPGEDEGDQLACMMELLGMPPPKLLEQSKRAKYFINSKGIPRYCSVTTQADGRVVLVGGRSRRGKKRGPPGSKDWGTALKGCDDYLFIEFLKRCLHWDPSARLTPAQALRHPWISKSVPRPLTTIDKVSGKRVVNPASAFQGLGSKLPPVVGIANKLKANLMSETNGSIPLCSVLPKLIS
Description: Radiometric protein kinase assay (33PanQinase Activity Assay), DYRK3. Conditions: read-out: IC50 on DYRK3 (most potent DYRK3 inhibitors). The protocol:
Assays were performed by ProQinase GmbH (Engesserstr. 4, D-79108 Freiburg, Germany. www.proqinase.com). The IC50 profile of all compounds was determined using 12 protein kinases (CDK2/cyclin E, CK1ε, CLK1, 2, 3, 4, DYRK1A, 1B, 2, 3, 4, GSK3β).
The compounds were provided as […] in 100% DMSO. Prior to testing, the 1 μM stock solutions were subjected to a serial, semi-logarithmic dilution using 100% DMSO as a solvent. […] In the process, 90 μl H2O were added to each well of each compound dilution plate. To minimize potential precipitation, the H2O was added to each plate only a few minutes before the transfer of the compound solutions into the assay plates. The plate was shaken thoroughly, resulting in a compound dilution plate/10% DMSO.
For the assays (see below), 5 μL solution from each well of the compound dilution plates/10% DMSO were transferred into the assay plates. The final volume of the assay was 50 μL. All compounds were tested at 10 final assay concentrations in the range from 10 μM to 30 nM. The final DMSO concentration in the reaction cocktails was 1% in all cases.
All protein kinases provided by ProQinase were expressed in Sf9 insect cells or in E. coli as recombinant GST-fusion proteins or His-tagged proteins, either as full-length or enzymatically active fragments. All kinases were produced from human cDNAs and purified by either GSH-affinity chromatography or immobilized metal. Affinity tags were removed from a number of kinases during purification. The purity of the protein kinases was examined by SDS-PAGE/Coomassie staining, the identity was checked by mass spectroscopy.
A radiometric protein kinase assay (33PanQinase® Activity Assay) was used for measuring the kinase activity of the 12 protein kinases. All kinase assays were performed in 96-well FlashPlates™ from PerkinElmer (Boston, MA, USA) in a 50 μL reaction volume. The reaction cocktail was pipetted in four steps in the following order: • 25 μL of assay buffer (standard buffer/[γ-^33P]-ATP), • 10 μL of ATP solution (in H2O), • 5 μL of test compound (in 10% DMSO), • 10 μL of enzyme/substrate mixture.
The reaction cocktails were incubated at 30° C. for 60 minutes. The reaction was stopped with 50 μL of 2% (v/v) H3PO4, plates were aspirated and washed two times with 200 μL 0.9% (w/v) NaCl. Incorporation of ^33Pi was determined with a microplate scintillation counter (Microbeta, Wallac). The IC50 values for all compounds were calculated from the dose response curves
As a parameter for assay quality, the Z′-factor (Zhang et al., J. Biomol. Screen. 2: 67-73, 1999) for the low and high controls of each assay plate (n=8) was used. ProQinase's criterion for repetition of an assay plate is a Z′-factor below 0.4 (Iversen et al., J. Biomol. Screen. 3: 247-252, 2006).

As to `O=C1NC(NC23CC4CC(CC(O)(C4)C2)C3)=N/C1=C\c1ccc2ncccc2c1` [Compound 50, (4Z)-2-[(3-hydroxy-1-adamantyl)amino]-4-(6-quinolylmethylene)-1H-imidazol-5-one], the pIC50 on CLK4 is at least 8.00; at DYRK1A (IC50 class A to E, read-out: Potency Class DYRK1A), at least 8.30; at DYRK1A (class by IC50 on DYRK1A, from dose-response curves, read-out: Potency Class DYRK1A), over 8.30; at DYRK1A (read-out: IC50 on DYRK1A (most potent DYRK1A inhibitors)), at least 8.00; at DYRK2 it was at least 6.60; on DYRK3, at least 6.60. Also, the “Selectivity Class DYRK1A vs. CLK1” value on DYRK1A (ratio of IC50 on CLK1 over IC50 on DYRK1A) is “II (ratio between 2 and 10 fold)”. Also, the “Selectivity Class DYRK1A vs. DYRK1B” value at DYRK1A (ratio of IC50 on DYRK1B over IC50 on DYRK1A) is “II (ratio between 2 and 10 fold)”.
